In patent US20250011364A1, “TUMOR TISSUE-PENETRATING PEPTIDE, SPECIFICALLY BINDING TO NEUROPILIN 1, FOR DRUG DELIVERY TO TUMOR, AND USE THEREOF” (CELLICON LAB INC., priority 2022, published 2025):

What was measured:
AsPC-1 cells = experiment: MTT assay: improvement of anticancer efficacy of doxorubicin; type: cell-based; conditions: 48 hours, compared to the group treated with only doxorubicin (FIG. 1)
Experimental: In order to examine the function of the present invention as a tumor tissue-penetrating peptide, the effect of the present invention on improving the anticancer efficacy of doxorubicin was evaluated. Specifically, the effect of a tumor tissue-penetrating peptide consisting of any one amino acid sequence selected from SEQ ID NO: 5 to SEQ ID NO: 8 of the present invention and SEQ ID NO: 1 to SEQ ID NO: 4, derivatives thereof, on improving the anticancer efficacy of doxorubicin was evaluated.
Specifically, in order to evaluate the effect of improving anticancer efficacy, AsPC-1 cells were used to perform the MTT assay, and cell viability was analyzed and compared (FIG. 1).
Pancreatic cancer cells (AsPC-1) were cultured in 96-well plates at 2×10^5 cells/ml for 24 hours, then treated with samples at various concentrations, and cultured for another 48 hours. […] After 4 hours, the MTT solution was removed, DMSO was added to each well to dissolve formazan at 37° C. for 30 minutes, and then the absorbance was measured at 570 nm using a microplate reader (Molecular Devices Spectra MAX, Sunnyvale, CA, USA). In all experiments, the results were statistically processed by taking the average value for three wells for each concentration, and expressed as a relative viability (%) compared to that in the group treated with no sample.

AsPC-1 xenograft [1] = experiment: Tumor tissue penetration of doxorubicin, confocal microscopy of tumor slides; type: in vivo, mice; conditions: peptide 5 μM/kg iv, doxorubicin 10 mg/kg iv 10 minutes later, tumor extracted 24 hours later; vs doxorubicin only and doxorubicin + iRGD (FIG. 4)
Experimental: In order to examine the effect of the peptide of SEQ ID NO: 8 of the present invention on improving the tumor tissue-penetrating ability of a physiologically active substance, tumor-induced AsPC-1 xenograft mice were treated with only doxorubicin, doxorubicin and iRGD as a positive control, or with tumor tissue-penetrating peptide, and the effect was compared.
Specifically, iRGD or tumor tissue-penetrating peptide (5 μM/kg) was injected intravenously (iv) into AsPC-1 xenograft mice, doxorubicin (Dox; 10 mg/kg) was injected intravenously 10 minutes later, and then the tumor was extracted 24 hours later to construct paraffin slides. The slides were stained with anti-CD31-FITC (vascular endothelial cell marker), and Dox (red)/CD31 (FITC) was analyzed using a confocal microscope.

AsPC-1 xenograft [2] = experiment: Tumor tissue penetration of FITC-albumin, confocal microscopy; type: in vivo, mice; conditions: FITC-albumin iv in conjugation/combination with peptide vs singly, tumor extracted 1, 3 and 24 hours later (FIG. 5)
Experimental: In order to examine the effect of the peptide of SEQ ID NO: 8 of the present invention on improving the tumor tissue-penetrating ability of physiologically active substances, FITC-albumin was injected intravenously (iv) singly or in conjugation/combination with the tumor tissue-penetrating peptide (five minutes) into tumor-induced AsPC-1 xenograft mice, the tumor was extracted 1, 3, and 24 hours later, and analysis was performed using a confocal microscope (albumin molecular weight: about 70 kDa).

NRP-1 = NRP-1 (Homo sapiens, UniProt O14786); experiment: Competitive ELISA assay, inhibition of VEGF 165 binding to NRP-1; conditions: NRP-1 treated with peptide and VEGF, competitive ELISA (FIG. 6)
Text: Therefore, the tumor tissue-penetrating peptide is more likely to bind to NRP-1 competitively, and thus can interfere with neovascularization, and this means that the tumor tissue-penetrating peptide can suppress tumor growth (FIG. 6).

NRP-1, sequence (O14786 22-923): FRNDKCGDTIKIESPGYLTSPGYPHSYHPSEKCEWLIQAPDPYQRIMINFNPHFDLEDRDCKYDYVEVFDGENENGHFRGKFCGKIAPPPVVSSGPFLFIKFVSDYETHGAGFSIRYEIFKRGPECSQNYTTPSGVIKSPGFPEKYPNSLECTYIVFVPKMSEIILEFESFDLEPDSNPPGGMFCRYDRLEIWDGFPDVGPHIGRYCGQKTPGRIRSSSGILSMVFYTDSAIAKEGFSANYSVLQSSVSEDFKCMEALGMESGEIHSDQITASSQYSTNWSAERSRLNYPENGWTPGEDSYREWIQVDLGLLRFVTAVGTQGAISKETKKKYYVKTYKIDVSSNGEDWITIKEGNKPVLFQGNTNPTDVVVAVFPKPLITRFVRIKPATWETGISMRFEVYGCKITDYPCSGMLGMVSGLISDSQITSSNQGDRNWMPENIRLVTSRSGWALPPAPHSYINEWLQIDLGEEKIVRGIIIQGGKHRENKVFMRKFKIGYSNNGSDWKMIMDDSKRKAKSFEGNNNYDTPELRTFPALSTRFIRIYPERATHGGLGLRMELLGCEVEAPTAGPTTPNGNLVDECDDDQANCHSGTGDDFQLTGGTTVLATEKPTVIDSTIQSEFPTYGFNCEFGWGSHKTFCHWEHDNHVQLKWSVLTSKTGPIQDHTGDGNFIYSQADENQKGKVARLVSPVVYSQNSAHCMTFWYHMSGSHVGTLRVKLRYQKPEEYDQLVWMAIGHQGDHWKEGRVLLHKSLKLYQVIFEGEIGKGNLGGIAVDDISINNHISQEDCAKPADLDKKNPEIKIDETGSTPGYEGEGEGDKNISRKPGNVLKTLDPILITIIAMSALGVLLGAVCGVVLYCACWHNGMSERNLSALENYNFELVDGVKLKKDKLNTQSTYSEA

Substance: H2N-[Arg-Lys-Leu-Phe-Arg-Lys-Ile-Leu-Lys-Tyr-Leu-Arg]-CO2H (RKLFRKILKYLR) [SEQ ID NO: 8, tumor tissue-penetrating peptide]
- effect of improving anticancer efficacy of doxorubicin (cell viability) (AsPC-1 cells): most effective
- tumor tissue-penetrating ability of doxorubicin (AsPC-1 xenograft [1]): significantly superior
- tumor-penetrating ability of albumin (AsPC-1 xenograft [2]): increased
- NRP-1 binding of VEGF165 (NRP-1): decreases
